The source of these data is patent publication EP2853532B1, “1,2,4-oxadiazole derivatives as allosteric modulators of metabotropic glutamate receptors belonging to group III” (Instytut Farmakologii Polskiej Akademii Nauk, priority 2013, dated 2015).

The structures appear in SMILES notation.

One experiment concerns the target mGluR1 (Homo sapiens, UniProt Q13255). The settings on record: cited from earlier work.
The next experiment addresses mGluR8 (Homo sapiens, UniProt O00222). The settings on record: cited from earlier work.
Experiment [1] has as its target T1, recombinant human mGlu4a receptor (Homo sapiens, UniProt Q14833).
T1 construct: expressed in transfected cells
Kind of experiment: mGluR4 assay on T-Rex-293 cell line; cyclic AMP level by HTRF in the presence of forskolin and glutamate. The format is cell-based. The settings on record: for Emax: T-REx-293, percent of mGluR4 activity with tested compound and glutamate at maximally activating concentration (100%), mean of at least three independent experiments, read-out: % Glu Max; for EC50: EC50 for potentiation of glutamate response, forskolin 10 uM, mean of at least three independent experiments in duplicates. The source says:
mGluR4 assay on T-Rex™-293 Cell line - expressing recombinant human mGlu4 receptor.
The compounds of the present invention are positive allosteric modulator of III group of metabotropic glutamate receptors, subtype 4. Their activity was examined on recombinant human mGlu4a receptor by detecting level of cyclic AMP in the presence of forskolin, adenylyl cyclase activator. The positive allosteric modulators provided in the present invention are expected to increase the functional activity and/or maximal efficacy of glutamate or other orthosteric agonists at mGluR4 receptor.
Plazmid construct. The cDNA fragment encoding human metabotropic receptor 4, variant 1 (accession number: NM_000841, NCBI Nucleotide Database) was cloned into the BamHI/NotI sites of pcDNA5/FRT/TO vector, under the control of a tetracycline regulated promoter (Invitrogen, Poland).
Cell culture and transfection. HEK293 cell line containing an inducible expression system (Flp-In T-Rex 293 cell line, Invitrogen, Poland) was maintained in Dulbecco's modified Eagle's medium supplemented with 10% fetal bovine serum, 2mM L-Glutamine (supplemented DMEM, LONZA, Poland), blastycidin and zeocin. T-Rex 293 cells were transfected with mixture of pTet-hmGluR4 and pOG44 (Invitrogen, Poland) plazmids and GeneJuice transfection reagent (Merck Millipore, Poland) according to the manufacturer's instructions. Cells were grown in supplemented DMEM with hygromycin B (75µg/ml) allowed selection of cells with stably integrated one copy of pTet-hmGluR4 plazmid. Expression of mGluR4 is induced by Tetracycline treatment.
Cell preparation before assay. Stable transfected cells were grown to 60% confluency with supplemented DMEM. Two days before experiment mGluR4 expression was induced by adding tetracycline in concentration 0,75µg/ml. 40h before experiment cells were incubated in a L-Glutamine free medium.
Cyclic AMP measurement. cAMP was measured quantitatively by cAMP dynamic 2 (Cisbio Biossays, France) according to manufacture instructions. cAMP dynamic 2 assay (Cisbio Biossays, France) is method based on homogenous time-resolved fluorescence. cAMP dynamic 2 is a competitive immunoassay between native cAMP produced by cells and the cyclic AMP labeled with, a fluorescence dye. The tracer binding is visualized by antibody anti - cAMP labeled with Eu^3+ cryptate. The specific signal is inversely proportional to the concentration of cAMP in the sample.
Incubation of cells with all compounds was performed in 96 well plates. Each well were supplement with HHB containing 130 mM NaCl, 5,4 mM KCl, 1,8 mM CaCl2, 0,8 mM MgSO4, 0,9 mM NaH2PO4, 25 mM glucose and 20 mM HEPES, pH 7.4 with or without glutamate and with or without tested compound and forskolin (10 uM final concentration) in total volume of 50 ul. Assay was started by adding 50 ul of HHB buffer with cells to each well. Assay was performed in 37° C. After 5 min of incubation 10 ul of suspension containing 2000 cells were transferred to white 384 well plates (784080, Greiner bio-one) containing of 5 ul of cAMP-d2 conjugate in lysis buffer (cAMP dynamic 2, Cisbio Bioassays, France) in each well. Than was added 5 ul of cryptate conjugate in lysis buffer (cAMP dynamic 2, Cisbio Bioassays, France). After 1 h incubation in room temperature the fluorescence intensity of the assay plate were measured at 314 nm excitation, and 620 nm and 665 nm emission in Infinite M1000 (Tecan) microplate reader. Data were expressed as the ratio of 665 nm/620 nm. All liquid handling operations were performed using EVO 2000 system (Tecan, Switzerland).
Potentiation of the glutamate response of mGluR4 receptor by the invented compounds was observed as a decrease of EC50 value for the glutamate in the presence of these molecules in the compare of EC50 value in the absence of compounds. A decrease in the EC50 for glutamate in the presence of tested compound was an indicator of degree of mGluR4 positive allosteric modulation at a given concentration of the sample compound. […]

T1 sequence (Q14833 33-912): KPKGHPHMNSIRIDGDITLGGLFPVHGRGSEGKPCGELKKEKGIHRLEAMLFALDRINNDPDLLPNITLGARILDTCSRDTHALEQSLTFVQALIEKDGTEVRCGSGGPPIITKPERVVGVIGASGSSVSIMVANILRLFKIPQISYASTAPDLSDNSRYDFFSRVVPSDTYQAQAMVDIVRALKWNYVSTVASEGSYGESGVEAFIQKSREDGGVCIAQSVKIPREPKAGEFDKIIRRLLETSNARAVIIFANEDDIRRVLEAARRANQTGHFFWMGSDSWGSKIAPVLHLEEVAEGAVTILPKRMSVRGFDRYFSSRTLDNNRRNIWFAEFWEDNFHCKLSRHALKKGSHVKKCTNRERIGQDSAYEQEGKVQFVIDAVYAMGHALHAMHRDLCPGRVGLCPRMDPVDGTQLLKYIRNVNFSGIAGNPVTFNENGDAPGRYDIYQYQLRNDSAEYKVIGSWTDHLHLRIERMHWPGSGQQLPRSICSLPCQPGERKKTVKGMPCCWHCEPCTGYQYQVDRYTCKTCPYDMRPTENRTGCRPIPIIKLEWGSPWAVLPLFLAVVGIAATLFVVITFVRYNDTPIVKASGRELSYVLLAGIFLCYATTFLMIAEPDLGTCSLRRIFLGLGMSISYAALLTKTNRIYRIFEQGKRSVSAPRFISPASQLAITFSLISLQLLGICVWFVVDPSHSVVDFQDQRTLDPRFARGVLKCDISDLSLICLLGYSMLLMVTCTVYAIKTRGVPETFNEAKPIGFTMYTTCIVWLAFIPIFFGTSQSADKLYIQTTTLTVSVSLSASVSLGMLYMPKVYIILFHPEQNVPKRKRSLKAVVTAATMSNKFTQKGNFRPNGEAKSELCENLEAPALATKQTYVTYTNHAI
Sequence of mGluR8 (O00222 34-908, species assumed): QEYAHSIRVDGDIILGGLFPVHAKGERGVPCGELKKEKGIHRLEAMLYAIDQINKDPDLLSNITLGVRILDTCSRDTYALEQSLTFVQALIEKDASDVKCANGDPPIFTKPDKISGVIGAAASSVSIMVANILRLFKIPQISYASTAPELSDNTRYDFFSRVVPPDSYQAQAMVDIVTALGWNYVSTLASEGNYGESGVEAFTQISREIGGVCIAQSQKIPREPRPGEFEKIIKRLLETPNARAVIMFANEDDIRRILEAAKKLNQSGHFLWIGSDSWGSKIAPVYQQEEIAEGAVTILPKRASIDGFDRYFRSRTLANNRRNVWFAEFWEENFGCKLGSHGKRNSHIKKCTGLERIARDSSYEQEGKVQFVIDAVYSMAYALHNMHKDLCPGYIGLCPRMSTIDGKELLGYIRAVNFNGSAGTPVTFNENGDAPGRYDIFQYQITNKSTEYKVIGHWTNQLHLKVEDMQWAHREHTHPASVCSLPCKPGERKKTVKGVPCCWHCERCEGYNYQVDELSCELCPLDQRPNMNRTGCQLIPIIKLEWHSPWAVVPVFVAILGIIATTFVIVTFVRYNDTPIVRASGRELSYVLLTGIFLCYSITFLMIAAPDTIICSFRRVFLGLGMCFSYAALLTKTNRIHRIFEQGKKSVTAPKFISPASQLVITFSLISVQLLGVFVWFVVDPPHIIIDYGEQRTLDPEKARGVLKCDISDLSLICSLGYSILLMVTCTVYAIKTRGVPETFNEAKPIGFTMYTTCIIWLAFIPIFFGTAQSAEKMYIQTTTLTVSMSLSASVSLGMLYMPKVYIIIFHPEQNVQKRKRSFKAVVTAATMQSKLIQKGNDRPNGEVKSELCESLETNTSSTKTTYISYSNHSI
Sequence of mGluR1 (Q13255 19-1194): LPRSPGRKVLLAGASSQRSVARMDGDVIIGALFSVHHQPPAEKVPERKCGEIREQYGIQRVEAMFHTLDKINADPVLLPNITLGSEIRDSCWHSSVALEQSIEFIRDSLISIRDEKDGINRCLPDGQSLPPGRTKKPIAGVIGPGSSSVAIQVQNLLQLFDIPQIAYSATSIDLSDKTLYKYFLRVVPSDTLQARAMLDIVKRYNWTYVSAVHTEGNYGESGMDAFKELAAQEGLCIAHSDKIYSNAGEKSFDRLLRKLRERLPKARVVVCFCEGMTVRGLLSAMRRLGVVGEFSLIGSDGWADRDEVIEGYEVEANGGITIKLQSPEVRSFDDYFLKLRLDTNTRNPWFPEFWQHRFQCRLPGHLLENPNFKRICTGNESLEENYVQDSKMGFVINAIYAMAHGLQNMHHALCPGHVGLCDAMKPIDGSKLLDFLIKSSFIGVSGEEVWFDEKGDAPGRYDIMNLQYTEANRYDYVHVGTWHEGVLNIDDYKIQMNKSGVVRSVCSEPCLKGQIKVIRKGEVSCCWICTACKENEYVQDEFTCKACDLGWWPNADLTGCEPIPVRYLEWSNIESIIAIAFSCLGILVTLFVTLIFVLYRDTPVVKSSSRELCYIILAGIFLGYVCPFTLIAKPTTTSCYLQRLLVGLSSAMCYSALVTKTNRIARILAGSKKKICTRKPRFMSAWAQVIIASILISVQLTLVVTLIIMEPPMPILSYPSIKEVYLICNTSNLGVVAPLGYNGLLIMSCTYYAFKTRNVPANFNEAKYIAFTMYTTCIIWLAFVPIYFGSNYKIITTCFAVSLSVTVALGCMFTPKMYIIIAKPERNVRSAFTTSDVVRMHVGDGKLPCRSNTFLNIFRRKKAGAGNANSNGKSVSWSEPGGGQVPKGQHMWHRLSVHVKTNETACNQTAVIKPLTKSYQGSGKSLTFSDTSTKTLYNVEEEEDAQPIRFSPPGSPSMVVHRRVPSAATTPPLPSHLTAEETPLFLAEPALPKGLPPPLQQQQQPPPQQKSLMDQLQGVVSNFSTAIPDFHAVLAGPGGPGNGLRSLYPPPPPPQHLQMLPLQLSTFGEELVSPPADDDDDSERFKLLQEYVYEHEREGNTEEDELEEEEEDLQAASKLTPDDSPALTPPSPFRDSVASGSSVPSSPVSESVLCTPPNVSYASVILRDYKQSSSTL

For the compound `O=C(Nc1ccccc1)C12CC1C(=NO)c1ccccc1O2` (single isomer, unassigned; (-)) [(-)PHCCC, N-phenyl-7-(hydroxyimino)cyclopropan[b]chromen-1a-carboxamide], the “partial antagonist of mGluR1” value at mGluR1 is reported as 30%.

For the compound `N[C@H](C(=O)O)c1ccc(C(=O)O)c(C(=O)O)c1` [(S)-3,4-DCPG], the “selectivity for mGluR8 over mGluR4” value at mGluR8 is 100 fold.

Consider `COc1ccc(-c2nc(-c3ccc(NC(=O)c4ccncc4)cc3)no2)cc1` [Example 6, N-{4-[5-(4-methoxyphenyl)-1,2,4-oxadiazol-3-yl]phenyl}pyridine-4-carboxamide], for which the Emax in experiment [1] lay within 105 to 135%.

In the case of `COc1cc(NC(=O)c2ccccn2)ccc1-c1noc(-c2ccccc2Cl)n1` [Example 17, N-{4-[5-(2-chlorophenyl)-1,2,4-oxadiazol-3-yl]-3-methoxyphenyl}pyridine-2-carboxamide], in experiment [1], the Emax was in the range of 99.2 to 119%.

Regarding `COc1cc(NC(=O)c2ccccn2)ccc1-c1noc(-c2ccc(F)cc2Cl)n1` [Example 19, N-{4-[5-(2-chloro-4-fluorophenyl)-1,2,4-oxadiazol-3-yl]-3-methoxyphenyl} pyridine-2-carboxamide], the Emax in experiment [1] was 99.2 to 119%.

On to `O=C(Nc1ccc(-c2noc(-c3ccc(F)cc3Cl)n2)c(Cl)c1)c1ccccn1` [Example 22, N-{3-chloro-4-[5-(2-chloro-4-fluorophenyl)-1,2,4-oxadiazol-3-yl]phenyl}pyridine-2-carboxamide], for which the Emax in experiment [1] fell in the range of 99.2 to 119%.

On to `O=C(Nc1ccc(-c2noc(-c3ccc(F)cc3Cl)n2)c(F)c1)c1ccccn1` [Example 26, N-{4-[5-(2-chloro-4-fluorophenyl)-1,2,4-oxadiazol-3-yl]-3-fluorophenyl} pyridine-2-carboxamide], for which the Emax in experiment [1] is 105 to 135%.

As for `COc1ccccc1-c1nc(-c2ccc(NC(=O)c3ccccn3)cc2F)no1` [Example 27, N-{4-[5-(2-methoxyphenyl)-1,2,4-oxadiazol-3-yl]-3-fluorophenyl}pyridine-2-carboxamide], in experiment [1], the EC50 – broadly, the concentration at which the effect is half-maximal – is below 300 nM and the Emax is 105 to 118%.

In the case of `O=C(Nc1ccc(-c2noc(-c3ccccc3)n2)c(C(F)(F)F)c1)c1ccccn1` [Example 28], in experiment [1], the EC50 was below 300 nM and the Emax was in the range of 105 to 118%.

On to `O=C(Nc1ccc(-c2noc(-c3ccccc3Cl)n2)c(C(F)(F)F)c1)c1ccccn1` [Example 29, N-{4-[5-(2-chlorophenyl)-1,2,4-oxadiazol-3-yl]-3-(trifluoromethyl)phenyl} pyridine-2-carboxamide], for which the Emax in experiment [1] lay within 99.2 to 119%.

In the case of `Cc1cc(NC(=O)c2ccccn2)ccc1-c1noc(-c2ccccc2)n1` [Example 30, N-[3-methyl-4-(5-phenyl-1,2,4-oxadiazol-3-yl)phenyl]pyridine-2-carboxamide], in experiment [1], the EC50 was below 300 nM and the Emax was in the range of 105 to 118%.

For the compound `Cc1cc(NC(=O)c2ccccn2)ccc1-c1noc(-c2ccccc2Cl)n1` [Example 31, N-{4-[5-(2-chlorophenyl)-1,2,4-oxadiazol-3-yl]-3-methylphenyl}pyridine-2-carboxamide], the Emax in experiment [1] lay within 105 to 135%.

`COc1cc(NC(=O)c2cccc(F)n2)ccc1-c1noc(-c2ccccc2Cl)n1` [Example 32, N-{4-[5-(2-chlorophenyl)-1,2,4-oxadiazol-3-yl]-3-methoxyphenyl}-6-fluoropyridine-2-carboxamide]: the Emax in experiment [1] lay in the range of 99.2 to 119%.

Consider `COc1cc(NC(=O)c2ncc(Cl)cc2F)ccc1-c1noc(-c2ccccc2Cl)n1` [Example 33, 5-chloro-N-{4-[5-(2-chlorophenyl)-1,2,4-oxadiazol-3-yl]-3-methoxyphenyl}-3-fluoropyridine-2-carboxamide], for which the Emax in experiment [1] is 99.2 to 119%.

Take `COc1cc(NC(=O)c2cccc(Cl)n2)ccc1-c1noc(-c2ccccc2Cl)n1` [Example 34, 6-chloro-N-{4-[5-(2-chlorophenyl)-1,2,4-oxadiazol-3-yl]-3-methoxyphenyl}pyridine-2-carboxamide]: the Emax in experiment [1] lay in the range of 99.2 to 119%.

As for `COc1cc(NC(=O)c2ccncn2)ccc1-c1noc(-c2ccccc2Cl)n1` [Example 38, N-{4-[5-(2-chlorophenyl)-1,2,4-oxadiazol-3-yl]-3-methoxyphenyl} pyrimidine-4-carboxamide], the Emax in experiment [1] was 105 to 135%.

Consider `COc1cc(NC(=O)c2cccc(F)n2)ccc1-c1noc(-c2ccccc2F)n1` [Example 40, 6-fluoro-N-{4-[5-(2-fluorophenyl)-1,2,4-oxadiazol-3-yl]-3-methoxyphenyl} pyridine-2-carboxamide], for which the Emax in experiment [1] was 105 to 135%.

With `COc1cc(NC(=O)c2nc(Cl)ccc2Cl)ccc1-c1noc(-c2ccccc2F)n1` [Example 41, 3,6-dichloro-N-{4-[5-(2-fluorophenyl)-1,2,4-oxadiazol-3-yl]-3-methoxyphenyl}pyridine-2-carboxamide], the Emax in experiment [1] was in the range of 99.2 to 119%.

Take `O=C(Nc1ccc(-c2noc(-c3ccccc3Cl)n2)c(Cl)c1)c1cccc(F)n1` [Example 42]: the Emax in experiment [1] fell in the range of 99.2 to 119%.

As for `O=S(=O)(Nc1ccccc1Cl)c1ccc(-c2noc(-c3ccccc3)n2)cc1` [Example 44, N-(2-chlorophenyl)-4-(5-phenyl-1,2,4-oxadiazol-3-yl)benzene-1-sulfonamide], the Emax in experiment [1] fell in the range of 99.2 to 119%.

As to `O=S(=O)(Nc1ccc(F)cc1F)c1ccc(-c2noc(-c3ccccn3)n2)cc1` [Example 46, N-(2,4-difluorophenyl)-4-[5-(pyridin-2-yl)-1,2,4-oxadiazol-3-yl]benzene-1-sulfonamide], the Emax in experiment [1] lay in the range of 99.2 to 119%.

`O=C(Nc1ccc(-c2nc(-c3ccccc3)no2)cc1)c1ccccc1` [Example 47, N-[4-(3-phenyl-1,2,4-oxadiazol-5-yl)phenyl]benzamide]: the Emax in experiment [1] fell in the range of 99.2 to 119%.

Take `O=C(Nc1ccc(-c2nc(-c3ccccc3)no2)cc1)c1cccc(Cl)c1` [Example 48, 3-chloro-N-[4-(3-phenyl-1,2,4-oxadiazol-5-yl)phenyl]benzamide]: in experiment [1], the Emax fell in the range of 99.2 to 119%.

For the compound `COc1ccc(C(=O)Nc2ccc(-c3nc(-c4ccccc4)no3)cc2)cc1` [Example 49, 4-methoxy-N-[4-(3-phenyl-1,2,4-oxadiazol-5-yl)phenyl]benzamide], in experiment [1], the EC50 was below 300 nM and the Emax is 105 to 118%.

In the case of `O=C(Nc1ccc(-c2nc(-c3ccccc3)no2)cc1)c1ccc([N+](=O)[O-])cc1` [Example 50, 4-nitro-N-[4-(3-phenyl-1,2,4-oxadiazol-5-yl)phenyl]benzamide], in experiment [1], the Emax is 105 to 135%.

As for `Cn1cccc1C(=O)Nc1ccc(-c2nc(-c3ccccc3)no2)cc1` [Example 54, 1-methyl-N-[4-(3-phenyl-1,2,4-oxadiazol-5-yl)phenyl]-1H-pyrrole-2-carboxamide], in experiment [1], the Emax was 99.2 to 119%.
